27 molecules from patent US20250042879A1, “HETEROCYCLIC SUBSTITUTED 1,3,4-THIADIAZOLE AND PYRIDAZINE COMPOUNDS AND METHODS OF USING THE SAME” (Rgenta Therapeutics, Inc., priority 2021, published 2025) can be followed below.

Where a name gives a salt, the structure may show the parent alone.

In one assay the test system is HTT. As to the kind of experiment: Mini-gene reporter assay-HTT (firefly luciferase, exon inclusion). Format: cell-based. As to conditions: HTT Minigene, 5 μM; read-out: % Efficacy at 5 μM. The text has this:
Mini-gene reporter constructs for each target site were constructed by first PCR amplifying the region-of-interest including the sequence of the alternatively skipped, sequences of the immediate upstream and downstream introns, and sequences of the immediate upstream and downstream exons. Then the 3′end of the amplified sequence was ligated to a firefly luciferase reporter gene and cloned into the pcDNA3.1 vector backbone. The final reporter construct was transiently transfected into HEK293 cells using Lipofectamine 3000 transfection reagents. Compounds that can induce the inclusion of the skipped exon in the reporter construct would increase the reporter firefly luciferase activity.
Test compounds were diluted in duplicates and dispensed into an assay plate. Transient mini-gene reporter cell line stock was resuspended and dispensed into the assay plate. Assay plates were then centrifuged and incubated. A luciferase reagent (e.g. ONE-Glo firefly luciferase reagent from Promega®) was added to the assay plate and the luminescence (RLU) signals recorded. EC50 values were determined by curve fitting in Levenberg-Marquardt algorithm.
(A reporter such as luciferase makes a cellular process visible.)
With `Cc1cn2cc(-c3ccc(-c4ccc(C5CN(C6CCSC6)C5)nn4)c(O)c3)cc(F)c2n1` (stereo not drawn) [Compound 70], the Emax at 5 µM lay in the range of 25 to 75%.

With `Cc1cn2cc(-c3ccc(-c4ccc(C5CN(Cc6cnn(C)c6)C5)nn4)c(O)c3)cc(F)c2n1` [Compound 71], the Emax at 5 µM was above 750%.

On to `Cc1cn2cc(-c3ccc(-c4ccc(C5CN(Cc6cc[nH]n6)C5)nn4)c(O)c3)cc(F)c2n1` [Compound 72], for which the Emax at 5 µM is above 750%.

Consider `Cc1cn2cc(-c3ccc(-c4ccc(C5CN(Cc6c[nH]nc6C)C5)nn4)c(O)c3)cc(F)c2n1` [Compound 73], for which the Emax at 5 µM was above 750%.

As for `Cc1cn2cc(-c3ccc(-c4ccc(C5CN(Cc6c(C)n[nH]c6C)C5)nn4)c(O)c3)cc(F)c2n1` [Compound 74], the Emax at 5 µM was 25 to 75%.

Still in this assay, the particulars now being: Homo sapiens; HTT mini-gene firefly luciferase reporter transiently transfected into HEK293 cells.
One may read the EC50 as the midpoint of the concentration-response curve. Regarding `Cn1cc2cc(-c3ccc(-c4ccc(C5CN(C6CCOC6)C5)nn4)c(O)c3)ccc2n1` (stereo not drawn) [Compound 45, 5-(2-methyl-2H-indazol-5-yl)-2-{6-[1-(oxolan-3-yl)azetidin-3-yl]pyridazin-3-yl}phenol], the EC50 is 500 to 1000 nM.

Consider `CCN1CC(c2ccc(-c3ccc(-c4cc5cn(C)nc5cn4)cc3O)nn2)C1` [Compound 46, 2-[6-(1-ethylazetidin-3-yl)pyridazin-3-yl]-5-{2-methyl-2H-pyrazolo[3,4-c]pyridin-5-yl}phenol], for which the half-maximal effective concentration (EC50) fell in the range of 500 to 1000 nM.

For `CCN1CC(c2ccc(-c3ccc(-c4ccc5nccn5n4)cc3O)nn2)C1` [Compound 47, 2-[6-(1-ethylazetidin-3-yl)pyridazin-3-yl]-5-{imidazo[1,2-b]pyridazin-6-yl}phenol], the EC50 lay in the range of 500 to 1000 nM.

Take `CCN1CC(c2ccc(-c3ccc(-c4cc(OC)c5nn(C)cc5c4)cc3O)nn2)C1` [Compound 48, 2-[6-(1-ethylazetidin-3-yl)pyridazin-3-yl]-5-(7-methoxy-2-methyl-2H-indazol-5-yl)phenol]: the EC50 fell in the range of 50 to 500 nM.

In turn, `COc1cc(-c2ccc(-c3ccc(C4CN(C5CCOCC5)C4)nn3)c(O)c2)cc2cn(C)nc12` [Compound 49, 5-(7-methoxy-2-methyl-2H-indazol-5-yl)-2-{6-[1-(oxan-4-yl)azetidin-3-yl]pyridazin-3-yl}phenol] came in with an EC50 of 500 to 1000 nM.

Molecule `CCN1CC(c2ccc(-c3ccc(-c4ccc5nn(C)cc5n4)cc3O)nn2)C1` [Compound 50, 2-[6-(1-ethylazetidin-3-yl)pyridazin-3-yl]-5-{2-methyl-2H-pyrazolo[4,3-b]pyridin-5-yl}phenol] yielded a half-maximal effective concentration (EC50) of 50 to 500 nM.

`Cn1cc2nc(-c3ccc(-c4ccc(C5CN(C6CCOCC6)C5)nn4)c(O)c3)ccc2n1` [Compound 51, 5-{2-methyl-2H-pyrazolo[4,3-b]pyridin-5-yl}-2-{6-[1-(oxan-4-yl)azetidin-3-yl]pyridazin-3-yl}phenol]: the EC50 was 500 to 1000 nM.

Take `CCN1CC(c2ccc(-c3ccc(-c4cc5cn(C)nc5c(OC)n4)cc3O)nn2)C1` [Compound 52, 2-[6-(1-ethylazetidin-3-yl)pyridazin-3-yl]-5-{7-methoxy-2-methyl-2H-pyrazolo[3,4-c]pyridin-5-yl}phenol]: the EC50 lay in the range of 50 to 500 nM.

In turn, `CCN1CC(c2ccc(-c3ccc(-c4cc5cn(C)nc5c(O)n4)cc3O)nn2)C1` [Compound 53, 5-{4-[6-(1-ethylazetidin-3-yl)pyridazin-3-yl]-3-hydroxyphenyl}-2-methyl-2H-pyrazolo[3,4-c]pyridin-7-ol] returned an EC50 of 500 to 1000 nM.

Molecule `CCOc1cc(-c2ccc(-c3ccc(C4CN(C5CCOCC5)C4)nn3)c(O)c2)cc2cn(C)nc12` [Compound 54, 5-(7-ethoxy-2-methyl-2H-indazol-5-yl)-2-{6-[1-(oxan-4-yl)azetidin-3-yl]pyridazin-3-yl}phenol] yielded an EC50 of at least 1000 nM.

`CCOc1cc(-c2ccc(-c3ccc(C4CN(C)C4)nn3)c(O)c2)cc2cn(C)nc12` [Compound 55, 5-(7-ethoxy-2-methyl-2H-indazol-5-yl)-2-[6-(1-methylazetidin-3-yl)pyridazin-3-yl]phenol] registered a concentration for a half-maximal effect (EC50) of at least 1000 nM.

The molecule `CCOc1cc(-c2ccc(-c3ccc(C4CN(CC)C4)nn3)c(O)c2)cc2cn(C)nc12` [Compound 56, 5-(7-ethoxy-2-methyl-2H-indazol-5-yl)-2-[6-(1-ethylazetidin-3-yl)pyridazin-3-yl]phenol] yielded an EC50 of 500 to 1000 nM.

As for `COc1nc(-c2ccc(-c3ccc(C4CN(C(C)C)C4)nn3)c(O)c2)cc2cn(C)nc12` [Compound 57, 5-{7-methoxy-2-methyl-2H-pyrazolo[3,4-c]pyridin-5-yl}-2-{6-[1-(propan-2-yl)azetidin-3-yl]pyridazin-3-yl}phenol], the EC50 was 50 to 500 nM.

`COc1nc(-c2ccc(-c3ccc(C4CN(C5CCOCC5)C4)nn3)c(O)c2)cc2cn(C)nc12` [Compound 58, 5-{7-methoxy-2-methyl-2H-pyrazolo[3,4-c]pyridin-5-yl}-2-{6-[1-(oxan-4-yl)azetidin-3-yl]pyridazin-3-yl}phenol]: the EC50 is 50 to 500 nM.

The molecule `CCc1cc(-c2ccc(-c3ccc(C4CN(C5CCOCC5)C4)nn3)c(O)c2)nc2cn(C)nc12` [Compound 59, 5-{7-ethyl-2-methyl-2H-pyrazolo[4,3-b]pyridin-5-yl}-2-{6-[1-(oxan-4-yl)azetidin-3-yl]pyridazin-3-yl}phenol] showed an EC50 of at least 1000 nM.

For `CCc1cc(-c2ccc(-c3ccc(C4CN(CC)C4)nn3)c(O)c2)nc2cn(C)nc12` [Compound 60, 5-{7-ethyl-2-methyl-2H-pyrazolo[4,3-b]pyridin-5-yl}-2-[6-(1-ethylazetidin-3-yl)pyridazin-3-yl]phenol], the concentration for a half-maximal effect (EC50) is at least 1000 nM.

In turn, `Cc1cc(-c2ccc(-c3ccc(C4CN(C5CCOCC5)C4)nn3)c(O)c2)nc2cn(C)nc12` [Compound 61, 5-{2,7-dimethyl-2H-pyrazolo[4,3-b]pyridin-5-yl}-2-{6-[1-(oxan-4-yl)azetidin-3-yl]pyridazin-3-yl}phenol] had a concentration giving a half-maximal response (EC50) of at least 1000 nM.

For the molecule `CCN1CC(c2ccc(-c3ccc(-c4cc(C)c5nn(C)cc5n4)cc3O)nn2)C1` [Compound 62, 5-{2,7-dimethyl-2H-pyrazolo[4,3-b]pyridin-5-yl}-2-[6-(1-ethylazetidin-3-yl)pyridazin-3-yl]phenol], the EC50 lay within 500 to 1000 nM.

In turn, `Cc1cn2nc(-c3ccc(-c4ccc(C5CN(C6CCOCC6)C5)nn4)c(O)c3)ccc2n1` [Compound 63, 5-(2-methylimidazo[1,2-b]pyridazin-6-yl)-2-(6-(1-(tetrahydro-2H-pyran-4-yl)azetidin-3-yl)pyridazin-3-yl)phenol hydrochloride] showed a half-maximal effective concentration (EC50) of 500 to 1000 nM.

For the molecule `Cc1cn2nc(-c3ccc(-c4ccc(C5CN(C6CCOCC6)C5)nn4)c(O)c3)cc(C)c2n1` [Compound 64, 5-(2,8-dimethylimidazo[1,2-b]pyridazin-6-yl)-2-(6-(1-(tetrahydro-2H-pyran-4-yl)azetidin-3-yl)pyridazin-3-yl)phenol hydrochloride], the EC50 lay within 500 to 1000 nM.

With `COc1cc(-c2ccc(-c3ccc(C4CN(C5CCOCC5)C4)nn3)c(O)c2)nc2cn(C)nc12` [Compound 65, 5-(7-methoxy-2-methyl-2H-pyrazolo[4,3-b]pyridin-5-yl)-2-(6-(1-(tetrahydro-2H-pyran-4-yl)azetidin-3-yl)pyridazin-3-yl)phenol hydrochloride], the EC50 is at least 1000 nM.

On to `CCN1CC(c2ccc(-c3ccc(-c4cc(OC)c5nn(C)cc5n4)cc3O)nn2)C1` [Compound 66, 2-(6-(1-ethylazetidin-3-yl)pyridazin-3-yl)-5-(7-methoxy-2-methyl-2H-pyrazolo[4,3-b]pyridin-5-yl)phenol hydrochloride], for which the EC50 is at least 1000 nM.
